Experimental findings from ChEMBL document CHEMBL1158724, “Ipomoeassins A-E, cytotoxic macrocyclic glycoresins from the leaves of Ipomoea squamosa from the Suriname rainforest” (J Nat Prod, 2005) are described below.

The experiment has as its system A2780. Nature of the experiment: Cytotoxicity against human A2780 cells. In kind it is functional, cell-based.
Compound `C/C=C(\C)C(=O)O[C@@H]1[C@@H](OC(C)=O)[C@@H]2O[C@H]3[C@H](O[C@@H](CCC)CCCCC[C@H](OC(C)=O)C(=O)CCC(=O)OC[C@@H](O2)[C@H]1OC(=O)/C=C/c1ccccc1)O[C@H](C)[C@H](OC(C)=O)[C@@H]3OC(C)=O` yielded an IC50 of 19100 nM. As for `C/C=C(\C)C(=O)O[C@@H]1[C@@H](OC(C)=O)[C@@H]2O[C@H]3[C@H](O[C@@H](CCC)CCCCCCC(=O)CCC(=O)OC[C@@H](O2)[C@H]1OC(=O)/C=C/c1ccccc1)O[C@H](C)[C@H](OC(C)=O)[C@@H]3OC(C)=O`, the figure is 15800 nM. As for `C/C=C(\C)C(=O)O[C@@H]1[C@@H](O)[C@@H]2O[C@H]3[C@H](O[C@@H](CCC)CCCCCCC(=O)CCC(=O)OC[C@@H](O2)[C@H]1OC(=O)/C=C/c1ccccc1)O[C@H](C)[C@H](OC(C)=O)[C@@H]3O` [IPOMOEASSIN A], the figure is 500 nM; as for `C/C=C(\C)C(=O)O[C@@H]1[C@@H](O)[C@@H]2O[C@H]3[C@H](O[C@@H](CCC)CCCCCCC(=O)CCC(=O)OC[C@@H](O2)[C@H]1OC(=O)/C=C/c1ccccc1)O[C@H](C)[C@H](O)[C@@H]3O` [IPOMOEASSIN B], 400 nM; as for `C/C=C(\C)C(=O)O[C@@H]1[C@@H](O)[C@@H]2O[C@H]3[C@H](O[C@@H](CCC)CCCCC[C@H](O)C(=O)CCC(=O)OC[C@@H](O2)[C@H]1OC(=O)/C=C/c1ccccc1)O[C@H](C)[C@H](OC(C)=O)[C@@H]3O` [IPOMOEASSIN C], 2900 nM. In the case of `C/C=C(\C)C(=O)O[C@@H]1[C@@H](O)[C@@H]2O[C@H]3[C@H](O[C@@H](CCC)CCCCC[C@H](OC(C)=O)C(=O)CCC(=O)OC[C@@H](O2)[C@H]1OC(=O)/C=C/c1ccccc1)O[C@H](C)[C@H](OC(C)=O)[C@@H]3O` [IPOMOEASSIN D] it was 35 nM; in that of `C/C=C(\C)C(=O)O[C@@H]1[C@@H](O)[C@@H]2O[C@H]3[C@H](O[C@@H](CCC)CCCCC[C@H](OC(C)=O)C(=O)CCC(=O)OC[C@@H](O2)[C@H]1OC(=O)/C=C/c1ccccc1)O[C@H](C)[C@H](O)[C@@H]3O` [IPOMOEASSIN E], 3300 nM.
